Experiments:
PP2A = PP2A activity assay (immunoprecipitated PP2A, phosphopeptide, Malachite Green); format: cell-based, human
Procedure: PP2A activity was measured in control BE(2)-M17 cells at various incubation times (t=0, 1, 2, 5 and 8 hr) after exposure to 50 μM 6-OHDA. […] Control, wild-type, and T123A G-substrate-expressing cells were then exposed to 50 μM 6-OHDA for 2 hours before measurement of PP2A activity.
PP2A activity was measured using a non-radioactive kit according to the manufacturer's instruction (Upstate Biotechnologies, Lake Placid, N.Y.). After 50 μM 6-OHDA exposure with various times, cells were harvested in 20 mM imidazole-HCl, 2 mM EDTA, 2 mM EGTA, pH7 with a protease inhibitor cocktail (Sigma). Protein concentrations of the lysates were measured using BCA assay (Pierce) and 500 μg of protein was immunoprecipitated using an anti-PP2A catalytic subunit antibody and protein A-Sepharose beads. Immunoprecipitated PP2A was then incubated with phosphopeptide (K-R-pT-I-R-R (SEQ ID NO: 8)) for 10 min at 37° C. Dephosphorylation of the phosphopeptide was assayed spectrophotometrically at 650 nm using Malachite Green.

A9 DA neurons = format: in vivo, rat; conditions: rats, intra-striatal 6-OHDA
From the text: Retrograde 6-OHDA lesioning within the striatum is a well-established method of creating progressive degeneration of A9 DA neurons. The loss of TH immunoreactivity reflects actual loss of DA neurons (Sauer, 1994).
The in vivo neuroprotective effects of G-substrate against 6-OHDA-induced toxicity was examined by injecting 6-OHDA into the corpus striatum of rats which previously had either G-substrate or control genes (empty vector or YFP) delivered to the midbrain using the lentivirus as described above. 6-OHDA induced approximately an 80% loss of TH-positive neurons in the midbrain (FIG. 12Q) and complete loss of TH immunoreactivity in the striatum (data not shown). The severity of the striatal insult in this paradigm precluded our ability to usefully measure protection of striatal nerve terminals. […] Furthermore, most of the surviving TH-positive neurons in lenti G-substrate-transduced rats were strongly G-substrate-positive (FIGS. 12G-12L).
Rats received two 2.75 μl stereotaxic injections of either lenti-empty vector+lenti-eGFP (n=19), lenti-G substrate+lenti-eGFP (n=19), or lenti-YFP (n=14) and delivered at a rate of 0.2 μl/min using microinfusion pumps (Stoelting Co, Wood Dale, Ill.) with 10 min wait times after each injection. Lenti-eGFP was added to each condition, excluding the YFP condition, to serve as an exogenous marker for surgical targeting (0.5 μl of the total 5.5 μl A volume). SN injection coordinates were as follows: site 1: AP −4.8, ML −2.0, DV −7.2; site 2: AP −5.5, ML −1.8, DV −7.2; and tooth bar set at −3.3. Virus titers (p24) were as follows: G substrate, 60 ng/μl; empty vector, 60 ng/μl; eGFP, 83 ng/μl; and YFP, 60 ng/μl.
Two weeks following lentiviral injection, animals (lenti-empty vector+lenti-eGFP (n=9), lenti-G substrate+lenti-eGFP (n=9), or lenti-YFP (n=14)) received three 2.5 μl stereotaxic injections of 3.0 μg/μl 6-OHDA (total dose=22.5 μg 6-OHDA) delivered at a rate of 0.5 μl/min and 5 min wait times after each injection. Striatum injection coordinates were as follows: site 1: AP +1.3, ML −2.8, DV −4.5; site 2: AP +0.2, ML, −3.0, DV −5.0; site 3: AP −0.6, ML −4.0, DV −5.5; and tooth bar set at −3.3. The lesion was allowed to progress for 3 weeks after which animals were sacrificed for post mortem analyses.
Brains were cut frozen in the coronal plane at a thickness of 40 μm on a sliding microtome and six series of sections were stored in cryoprotectant. Two full series of sections were processed for visualization of tyrosine hydroxylase (TH) via the biotin-labeled antibody procedure. Briefly, following several washes in a PBS solution containing 0.01% Triton X-100 (PBS-T), endogenous peroxidase was quenched in a 3% hydrogen peroxide solution and background staining was then inhibited in a 5% normal goat serum solution. […]

BE(2)-M17 cells = assay: In vitro protection assays (MTS cell viability, LDH release) against neurotoxins; format: cell-based, human; conditions: for protection against 50 μM 6-OHDA exposure by PP2A inhibition (MTS cellular viability): BE(2)-M17 cells without elevated G-substrate, normalized to control
Procedure: Viability of the M17 cells was assessed following exposure to a variety of neurotoxins, each representing different aspects of PD pathology. 6-hydroxydopamine (6-OHDA) causes oxidative stress. MG-132 induces proteasome inhibition. And, MPP+ causes mitochondrial dysfunction by inhibiting Complex I. Cytotoxicity of M17 cells was determined using both cell viability assays and LDH release. G-substrate overexpression in M17 cells was confirmed by Western blot analysis (FIG. 3A) and by immunocytochemistry (FIG. 3B).
BE(2)-M17 cells were transduced with lentivirus expressing control or G-substrate with a multiplicity of infection 15. Cells were grown in Optimem™ (Invitrogen, Carlsbad, Calif.) supplemented with 10% heat-inactivated fetal calf serum (Hyclone, Logan, Utah), nonessential amino acid and sodium pyruvate. Cells were maintained at 37° C., in 5% CO2 humid atmosphere. For the bioassay, cells were plated in 96 well plates at 5000 per well. The next day, cells were treated with various concentrations of 6-OHDA (Sigma), MG-132 (Calbiochem) and MPP+ (Sigma) for 20 hrs. The supernatant was used to determine cytotoxicity using LDH release assay kit (Roche, Indianapolis, Ind.) and the cells remaining on the plate was used to determine cell viability using MTS based solution, CellTiter 96 AQueous One™ solution cell proliferation assay (Promega, Madison, Wis.).
Three different siRNAs for human G-substrate as described herein, a negative control siRNA, and a validated Akt siRNA (Ambion; Austin, Tex.) were used. Cells were plated in 96 well plates at 5000 per well with siRNAs and siPORT NeoFX transfection agent (Ambion, Austin, Tex.). After 48 hrs of incubation with siRNAs, each of the toxicants (6-OHDA, MG-132 or MPP+) were applied to the cells. Cell viability and cytotoxicity was measured after 20 hrs of toxin exposure.

VMAT2 = assay: Western blot of VMAT2 expression in M17 cells; format: cell-based, human; conditions: naïve M17 cells
From the text: BE(2)-M17 cells were used to investigate the interaction between G-substrate and α-synuclein, a known risk factor and possible causative agent in Parkinson's disease. […] Likewise, VMAT2 expression was reduced in naïve M17 cells following the reduction in endogenous G-substrate using siRNA (FIG. 10C).
M17 cells transiently and stably overexpression α-synuclein were transfected using the G-substrate lentiviral vector described above.
The PP2A regulation of VMAT 2 was investigated in M17 cells. PP2A levels were reduced using RNAi. […] The effect of PP2A inhibition was not generalized to other dopaminergic markers tested.
Cells and tissue samples were collected from and suspended in lysis buffer containing: 50 mM Tris-HCl, 0.15 M NaCl, 0.32 M sucrose, 1.0 mM EDTA, and 1% NP-40. In addition, phosphatase inhibitors I and II (1:100) and protease inhibitors (1:100) were added fresh prior to cell lysis (Sigma-Aldrich, P2850, P5276, and P8340 respectively). Following cell lysis, the homogenate was centrifuged, a portion of the supernatant was reserved for protein determination (BCA Assay, Pierce, Rockford, Ill.) and the remaining was stored at −20° C. 20 μg (in vitro cell preps) and 50 μg (tissue dissections) of solubilized protein were mixed 1:1 with sample buffer and boiled for 5 min. The samples and molecular weight standards were separated using the Criterion precast 10% SDS-polyacrylamide gel system (Bio-Rad, Hercules, Calif.). After electrophoresis, the proteins were electrically transferred to PVDF membranes at 100 V for 30 min. After transfer, blots were incubated in Tris-buffered saline with 0.1% Tween 20 (TBS-T) containing 5% BSA. Subsequently, blots were incubated with the following antibodies at 4° C. overnight (1:1000 unless otherwise stated): phospho-Akt (ser473), phospho-GSK3β (ser9), phospho-erk1/2, and phospho-p38 (Cell Signaling Technologies, Danvers, Mass.). HRP-conjugated secondary antibodies were then applied and immunoreactive bands were visualized with chemiluminescence (Amersham Biosciences, Arlington Heights, Ill.) and exposed onto film. Immunoblots were then stripped and re-probed for the expression of the total protein (Cell Signaling) and beta-actin (1:10 000) (Abcam) to serve as a loading control. Optical density analysis (NIH image) was used to determine the relative abundance of protein in each sample. The optical densities of the phospho epitopes were standardized to their respective total proteins and this value was used in the statistical analyses.

[1] = lentiviral overexpression in BE(2)-M17 cells, toxin 20 hrs, compared to control

## NCCc1cc(O)c(O)cc1O [6-OHDA, 6-hydroxydopamine, reference compound]
PP2A; control BE(2)-M17 cells, 50 μM 6-OHDA, t=1, 2, 8 hr (all times except t=5 hr)
  PP2A activity compared to basal activity: significantly increased
A9 DA neurons; 3 weeks
  loss of TH-positive neurons in the midbrain: ~80%
A9 DA neurons; data not shown
  loss of TH immunoreactivity in the striatum: complete loss

## COC[C@@H]([C@H](O)[C@H](O)C(=O)NCC[C@H](C)c1nc(/C=C/C[C@@H]2O[C@]3(C[C@@H](O)[C@@H]2C)O[C@H]([C@H](C[C@H](O)[C@H](C)[C@H](O)[C@H](C)/C=C(C)/C(C)=C/C=C/C(C)=C\C#N)OC)[C@H](OP(=O)(O)O)C3(C)C)co1)N(C)C [calyculin A, reference compound]
BE(2)-M17 cells
  protection against 50 μM 6-OHDA exposure by PP2A inhibition (MTS cellular viability): none of these methods alone were protective
VMAT2
  VMAT2 expression: increased VMAT2 levels

## C=C1[C@@H](O)[C@@H]2O[C@]3(CC[C@H](/C=C/[C@@H](C)[C@@H]4CC(C)=C[C@@]5(O[C@H](C[C@@](C)(O)C(=O)O)CC[C@H]5O)O4)O3)CC[C@H]2O[C@@H]1[C@@H](O)C[C@H](C)[C@H]1O[C@@]2(CCCCO2)CC[C@H]1C [okadaic acid, reference compound]
BE(2)-M17 cells
  protection against 50 μM 6-OHDA exposure by PP2A inhibition (MTS cellular viability): none of these methods alone were protective
VMAT2
  VMAT2 expression: increased VMAT2 levels

## T123A mutant G-substrate: mutant G-substrate with Thr to Ala point mutation at Thr 123 (T119A of human), overexpressed from a lentiviral vector
BE(2)-M17 cells; lentiviral overexpression in BE(2)-M17 cells
  protection against 6-OHDA and MG-132 compared to the wild-type: significantly less effective
BE(2)-M17 cells; lentiviral overexpression in BE(2)-M17 cells, toxin 20 hrs
  protection against MPP+-induced toxicity (cell viability, LDH release): neither wild-type nor T123A mutant G-substrate overexpression was protective
BE(2)-M17 cells; [1]
  neuroprotection against 6-OHDA toxicity (cell viability, LDH release): neuroprotective
  neuroprotection against MG-132 toxicity (cell viability, LDH release): neuroprotective
PP2A; BE(2)-M17 cells exposed to 50 μM 6-OHDA for 2 hours, versus control cells
  PP2A activity in G-substrate-expressing cells: reduced compared to controls, but not reduced as much as observed in the wild-type G-substrate-expressing cells

From patent US8545834B2, “G-substrate for the treatment and prevention of parkinson's disease” (The McLean Hospital Corporation, priority 2007, dated 2013)
